Assay results taken from patent US20090263780A1, “Organ preservation fluid” (priority 2008, published 2009).

Test system: Cortical neurons cultures
Assay: Neuron viability (MTT reduction test) after anoxic insult
Assay type: cell-based, Sprague-Dawley rats
Experimental: Neuron culture: Cortical neurons cultures were prepared from fetal Sprague-Dawley rats at 17-day gestation. Timed pregnant Sprague-Dawley rats were euthanized with isoflorane. After dissection of the cortical region of the fetal brain, cortical neurons were dispersed by trituration, centrifuged at 250 g for 5 minutes at 4° C., and suspended in a neurobasal medium supplemented with 25 μmol/L glutamic acid, 0.5 mmol/L glutamine, 1% antibiotic-antimycotic solution, and 2% B27 supplement. Cells were plated at 5×10^5 cells/ml on poly-L-lysine-coated 24-well plates. Cytosine (10 μmol/) was added at day 3. Neuron cultures were fed every 4 days with replacement of half of neurobasal medium containing 0.5 mmol/L glutamine, 1% antibiotic-antimycotic solution, and 2% B27 supplement. The culture plates were incubated at 37° C. in a humid atmosphere with 5% CO2. […]
Validation of neurons' survival: Neuronal viability was quantitatively evaluated by a methyl thiazole tetrazolium (MTT) reduction test. This quantifies the formation of a dark blue formazan product formed by the reduction of the tetrazolium ring of MTT by the mitochondrial succinate dehydrogenase in living cells. […] Cell viability corresponded to the value of the optical density read at 570 nm with background subtraction at 630 nm. Results were expressed as percent of the optical density measured in normal control cells.

## B: 2 wt % albumin (native bovine serum albumin, molecular weight 68 kDa, pI 4.8) + ACSF
ACSF supplemented with the polypeptide, anoxic environment, comparison
  Neuronal viability after anoxia, result in words: significantly increased neuronal viability
Anoxia 60 mins at 37° C., culture media replaced by 2 wt % test polypeptide + ACSF, MTT 24 hours after anoxia, percent of optical density in normal control cells
  Neuron's viability (Percentage, Mean ± SD): 96 ± 3.9 Percentage
